Test results taken from EP4640679A1, “SALT FORM AND CRYSTAL FORM OF PYRIDINE MULTI-SUBSTITUTED COMPOUND AND PREPARATION METHOD THEREFOR” (Usynova Pharmaceuticals Ltd., priority 2022, dated 2024).

What was measured:
[1] = Pharmacokinetic study, oral administration, dog; type: in vivo; conditions: plasma, 25 mg/kg, 25 mpk
Method: (§1) The purpose of this experiment is to study the pharmacokinetics of the test substance in the plasma of male CD-1 mice, SD rats and […] after intravenous injection and oral administration.
(§2) The animals were randomly divided into two groups, with 2 males in each group. The compounds were formulated into the specified formulations (the vehicle was 5 mg/mL of 10% sulfobutyl ether-β-cyclodextrin), and the oral formulations were clear or homogeneous suspensions.
(§3) Whole blood samples were collected from the animals by jugular vein puncture or saphenous vein at 5, 15, 30 minutes, 1, 2, 4, 8, and 24 hours after administration. The whole blood samples were added into centrifuge tubes containing anticoagulants, and centrifuged at 3000g for 15 minutes at 4°C. The supernatant plasma was collected and quickly frozen on dry ice and then stored in a refrigerator at -70 ± 10°C until LC-MS/MS analysis.
(§4) The pharmacokinetic software WinNonlin™ Version 6.3.0 (Pharsight, Mountain View, CA) was used to process the plasma drug concentration data of the compound in a non-compartmental model. The peak concentration (Cmax) and time to peak (Tmax) as well as last measurable time point were directly obtained from the plasma drug concentration-time graph.
(§5) The following pharmacokinetic parameters were calculated using the log-linear trapezoidal method: plasma clearance rate (CL), volume of distribution (Vd), elimination phase half-life (T1/2), mean residence time of drug in vivo from 0 to the terminal time point (MRT0-last), mean residence time of drug in vivo from 0 to infinite time (MRT0-inf), area under the time-plasma concentration curve from 0 to the terminal time point (AUC0-last), area under the time-plasma concentration curve from 0 to infinite time (AUC0-inf), and bioavailability (F). The experimental results of the present disclosure are shown in Table 5: Table 5: Pharmacokinetic test results

[2] = Pharmacokinetic study, oral administration, rat; type: in vivo, SD rats; conditions: plasma, 30 mg/kg, 30 mpk
Method: as §1, §2, §3, §4, §5

[3] = Pharmacokinetic study, oral administration, mouse; type: in vivo, CD-1 mice; conditions: plasma, 10 mg/kg, 10 mpk
Method: as §1, §2, §3, §4, §5

[4] = tested on: IFNα-stimulated phosphorylated STAT1; assay: IFNα-stimulated phosphorylation STAT1 assay in hPBMC (flow cytometry, CD4+ T cells); type: cell-based, Human
Method: Human peripheral blood mononuclear cells (hPBMC) were seeded at a cell density of 1x10^5 cells/well and placed in an incubator at 37°C for 90 minutes. Then different concentrations of compounds were added to the cells, wherein the concentration range of each compound started from 2 µM, which was serially diluted 5-fold to obtain a total of 8 concentration gradients. The compounds and cells were incubated at 37 °C for 30 minutes. hPBMC were stimulated with IFN-a (1000 U/ml), and then the level of phosphorylated STAT1 in CD4+ T cells was detected by flow cytometry to evaluate the inhibitory activity of the compound on the IFN-α pathway. The results of the in vitro cell activity assay of the free base of the compound of the present disclosure are shown in Table 4: Table 4: In vitro cell activity test results of the compound of the present disclosure (IC50)

[5] = target: T1, TYK2 protein (His-TVMV-TYK2 JH2 (575-869)) (Homo sapiens, UniProt P29597); assay: Tyk2 JH2 enzyme activity test (HTRF tracer displacement); type: binding
T1 construct: TYK2 protein (His-TVMV-TYK2 JH2 (575-869))
T1 sequence (P29597 575-869, species assumed): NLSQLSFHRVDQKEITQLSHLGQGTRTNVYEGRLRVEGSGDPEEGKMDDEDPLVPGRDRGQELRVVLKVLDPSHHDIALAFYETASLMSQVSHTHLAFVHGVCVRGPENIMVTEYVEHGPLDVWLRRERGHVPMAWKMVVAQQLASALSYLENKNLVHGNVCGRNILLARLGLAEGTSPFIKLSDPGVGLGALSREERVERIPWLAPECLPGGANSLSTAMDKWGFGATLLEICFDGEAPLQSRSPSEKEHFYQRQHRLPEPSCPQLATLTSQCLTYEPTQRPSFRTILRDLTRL
Method: To a buffer solution containing 20 mM of Hepes pH 7.5, 10 mM of MgCl2, 0.015% of Brij-35, 2 mM of DTT and 50 µg/ mL of BSA were added 0.5 nM of TYK2 protein (His-TVMV-TYK2 JH2 (575-869)), 0.2 nM of terbium-labeled His antibody, fluorescein-labeled kinase tracer at the relevant Kd value, and the test compound. The test system was incubated at room temperature for 90 minutes. Subsequently, the generated HTRF (homogeneous time-resolved fluorescence) signal, i.e., the ratio of the fluorescence intensity of the fluorescein acceptor (520 nm) and the terbium donor (495 nm) at the emission wavelength, was measured on an Envision plate reader, and the IC50 value was calculated based on this. The results of in vitro enzyme activity assay of the free base of the compound of the present disclosure are shown in Table 3: Table 3: In vitro enzyme activity test results of the compound of the present disclosure (IC50)

## [2H]C([2H])([2H])CC(=O)c1cnc(NC(=O)C2CC2)cc1Nc1cccc(-c2cnc(N=S(C)(C)=O)cn2)c1OC [Compound of formula (I)]
[1]
  AUC(0-t): 66.5 µM·h
  Cmax: 16.8 µM
  Tmax: 120 min
  bioavailability: 103%
[2]
  AUC(0-t): 231 µM·h
  Cmax: 44.5 µM
  Tmax: 45 min
  bioavailability: 65%
[3]
  AUC(0-t): 76 µM·h
  Cmax: 32.4 µM
  Tmax: 30 min
  bioavailability: 81%

## [2H]C([2H])([2H])CC(=O)c1cnc(NC(=O)C2CC2)cc1Nc1cccc(-c2cnc(N=S(C)(C)=O)cn2)c1OC
[4]; Homo sapiens, CD4+ T, read-out: IFNα-stimulated phosphorylated STAT1 (IC50 nM)
  IC50: 1.1 nM
[4]; conclusion in words
  Tyk2-related cellular activity on IFNα-stimulated phosphorylated STAT1: strong Tyk2-related cellular activity
[5]; HTRF, 90 minutes at room temperature
  IC50: 0.04 nM
[5]; conclusion in words
  inhibitory activity against Tyk2 JH2: strong inhibitory activity
